Assays:
[1] = target: T1, entrapped dihydrofolate reductase (DHFR) (Escherichia coli, UniProt P0ABQ4); test: FAC/ESI-MS/MS on monolithic column with entrapped DHFR; assay type: binding, E. coli; conditions: DHFR loaded column (25 pmol initial loading), compounds infused at 50 nM, 2 mM ammonium acetate, ESI/MS/MS detection
T1 construct: made in house

[2] = target: dihydrofolate reductase (DHFR) (Escherichia coli, UniProt P0ABQ4); conditions: cited from earlier work

Row | Structure (SMILES) | retention (elution) time [1] | Kd [2]
1 | CC(=O)NC(=O)[C@H](O)[C@@H](O)[C@H](O)[C@H](O)CO [N-acetyl-gluconamide] | 1.5 min | 
2 | Nc1nc2ncc(CNc3ccc(C(=O)N[C@@H](CCC(=O)O)C(=O)O)cc3)nc2c(=O)[nH]1 [folic acid] | 3 min | 11 µM
